Where two headings read alike, the source gives them in different places.
How the values were obtained:
[1] = test system: Caco-2 cell monolayers; assay: Caco2 (A-B/B-A) permeability; format: in vitro ADME; conditions: for Caco2 efflux ratio (ER): PappB-A/PappA-B; for Caco2 A-B apparent permeability (Papp): apical-to-basolateral; for Caco2 A-B apparent permeability (Papp) / Caco2 B-A apparent permeability (Papp): 5 μM, HBSS pH 7.4, 120 min, 37° C.; for Caco2 B-A apparent permeability (Papp): basolateral-to-apical
Method: (§1) The apical-to-basolateral (A-B) and basolateral-to-apical (B-A) transport of 5 μM test compounds in HBSS (10 mM HEPES, pH 7.4) was measured across Caco-2 cell monolayers (cells sourced from American Type Culture Collection, Manassas, Virgina). Duplicate incubations were performed at approximately 37° C. for 120 min, with functionality of the test system confirmed using 5 μM propranolol and digoxin as control compounds. Aliquots (50 μL) from both apical and basolateral wells were transferred into two fresh 96-well plates and quenched with acetonitrile solution containing analytical internal standards. Samples were vortexed mixed, centrifuged and a 100 μL aliquot of the resulting supernatant mixed with an equal volume of ultra-pure water prior to analysis by UPLC-MS/MS. The concentrations of test compound and control compounds in the incubation medium of donor and receiver compartments at the beginning and the end of the incubation period were used to calculate the apparent permeability (Papp) from A-B and B-A directions. The efflux ratio (ER) was expressed as PappB-A/PappA-B. The integrity of the cell monolayers after 2 hours incubation was confirmed using the marker reagent Lucifer yellow.

[2] = test system: DLD1-BRCA2−/− cells; assay: Cell proliferation assay in DLD1-BRCA2−/− cell lines (CellTiter-Glo, 7 days); format: cell-based
How it was run: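 Cells in RPMI 1640 + 10% FBS seeded overnight, then exposed to compound or vehicle for 7 days at 37 °C, 5% CO2. Viability read on day 8 by CellTiter-Glo luminescence; % inhibition fitted to a four-parameter logistic curve for IC50.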

[3] = biological target: Recombinant full length PARP2 (Homo sapiens (Human), UniProt Q9UGN5); assay: FP assay PARP2 (fluorescence anisotropy probe displacement); format: binding; conditions: 60 nM PARP2, 8 nM fluorescent probe, 4 h, room temperature
Method: (§2) FP experiments were carried out at room temperature using no-binding black 384-well microplates. Recombinant full length PARP1 and PARP2 proteins produced in house were diluted to 20 nM and 60 nM, respectively, with assay buffer (50 mM Tris pH 8, 0.001% Triton X100, 10 mM MgCl2, and 150 mM NaCl) and incubated for 4 h with an equivalent volume of the 8 nM fluorescent probe diluted with assay buffer. Fluorescence anisotropy of the probe when bound to the proteins was measured in the presence of test compounds or solvent control and the effect on anisotropy determined. Polarization values were read using an Envision plate reader using excitation and emission wavelengths of 590 and 630 nm, respectively. All FP values are expressed as mP units. Inhibition ratio was calculated using readout (mP) following the equation as below: […]
(§3) % inhibition values for different test compound concentrations were calculated and fitted to a four parameter logistic plot in order to determine the IC50 value using XLfit.

[4] = biological target: Recombinant full length PARP1 (Homo sapiens (Human), UniProt P09874); assay: FP assay PARP1 (fluorescence anisotropy probe displacement); format: binding; conditions: 20 nM PARP1, 8 nM fluorescent probe, 4 h, room temperature
Method: as §2, §3

[5] = Caco2 (A-B/B-A) permeability; format: in vitro ADME; conditions: human; for efflux ratio at 120 min, 5 μM: Caco-2, pH 7.4, PappB-A/PappA-B, read-out: Caco2 efflux ratio (ER); for Papp A→B at 120 min, 5 μM: Caco-2, pH 7.4, apical-to-basolateral, read-out: Caco2 A-B apparent permeability (Papp); for Papp A→B at 120 min, 5 μM / Papp B→A at 120 min, 5 μM: HBSS pH 7.4, 120 min, 37° C.; for Papp B→A at 120 min, 5 μM: Caco-2, pH 7.4, basolateral-to-apical, read-out: Caco2 B-A apparent permeability (Papp)
Method: as §1

Chain of Recombinant full length PARP2 (Q9UGN5 whole entry): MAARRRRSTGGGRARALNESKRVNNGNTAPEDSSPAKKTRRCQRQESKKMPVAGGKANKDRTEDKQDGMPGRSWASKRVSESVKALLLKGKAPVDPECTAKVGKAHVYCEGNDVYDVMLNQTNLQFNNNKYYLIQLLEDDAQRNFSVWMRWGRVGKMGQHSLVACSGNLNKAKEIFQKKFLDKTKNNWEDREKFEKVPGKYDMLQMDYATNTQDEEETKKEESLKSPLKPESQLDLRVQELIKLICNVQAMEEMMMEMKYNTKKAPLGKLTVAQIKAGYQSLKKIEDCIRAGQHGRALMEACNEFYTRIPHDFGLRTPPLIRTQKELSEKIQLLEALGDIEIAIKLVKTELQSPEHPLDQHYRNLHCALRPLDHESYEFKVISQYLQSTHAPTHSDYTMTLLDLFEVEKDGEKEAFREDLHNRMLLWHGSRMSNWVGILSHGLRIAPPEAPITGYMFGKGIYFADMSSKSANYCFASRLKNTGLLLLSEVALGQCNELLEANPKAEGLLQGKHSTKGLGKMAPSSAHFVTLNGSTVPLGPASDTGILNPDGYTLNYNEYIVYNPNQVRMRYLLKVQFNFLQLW
Chain of Recombinant full length PARP1 (P09874 whole entry): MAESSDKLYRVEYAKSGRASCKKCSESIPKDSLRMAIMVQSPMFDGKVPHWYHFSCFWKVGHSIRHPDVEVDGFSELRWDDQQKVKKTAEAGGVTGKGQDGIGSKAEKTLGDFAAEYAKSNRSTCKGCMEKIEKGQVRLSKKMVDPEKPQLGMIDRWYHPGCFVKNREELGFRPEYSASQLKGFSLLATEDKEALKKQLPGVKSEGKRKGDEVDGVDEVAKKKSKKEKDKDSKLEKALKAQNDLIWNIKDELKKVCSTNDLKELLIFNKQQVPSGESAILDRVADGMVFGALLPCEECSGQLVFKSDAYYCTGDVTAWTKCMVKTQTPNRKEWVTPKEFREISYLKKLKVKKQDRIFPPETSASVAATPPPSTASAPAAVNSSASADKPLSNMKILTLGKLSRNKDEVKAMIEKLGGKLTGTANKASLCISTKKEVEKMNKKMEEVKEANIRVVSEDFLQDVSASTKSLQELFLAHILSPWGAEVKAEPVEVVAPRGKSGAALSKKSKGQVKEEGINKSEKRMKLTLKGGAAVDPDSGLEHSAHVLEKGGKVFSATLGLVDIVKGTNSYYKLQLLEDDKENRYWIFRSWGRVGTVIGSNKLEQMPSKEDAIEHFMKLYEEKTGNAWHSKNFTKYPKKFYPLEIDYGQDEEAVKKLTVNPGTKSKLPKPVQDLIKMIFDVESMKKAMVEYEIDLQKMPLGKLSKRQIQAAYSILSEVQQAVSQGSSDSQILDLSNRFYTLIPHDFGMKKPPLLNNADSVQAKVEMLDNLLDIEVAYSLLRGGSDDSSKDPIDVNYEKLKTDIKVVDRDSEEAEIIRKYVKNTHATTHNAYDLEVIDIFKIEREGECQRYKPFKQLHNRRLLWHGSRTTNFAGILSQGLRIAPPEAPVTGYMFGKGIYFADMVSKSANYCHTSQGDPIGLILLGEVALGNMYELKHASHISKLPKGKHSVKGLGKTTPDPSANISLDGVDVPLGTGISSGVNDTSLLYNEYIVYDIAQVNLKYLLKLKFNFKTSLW

Row | Structure (SMILES) | Caco2 efflux ratio (ER) [1] | Caco2 A-B apparent permeability (Papp) [1] | Caco2 B-A apparent permeability (Papp) [1] | IC50 [2] [nM] | IC50 [3] [nM] | IC50 [4] [nM] | efflux ratio at 120 min, 5 μM [5] | Papp A→B at 120 min, 5 μM [5] [×10⁻⁶ cm/s] | Papp B→A at 120 min, 5 μM [5] [×10⁻⁶ cm/s] | IC50 ([2]; Homo sapiens, DLD-1, 168 h) [nM]
1 | CCc1cc2ncc([C@H](C)N3CC[C@@H](Oc4ccc(C(=O)NC)nc4)C3)cc2[nH]c1=O (single isomer, unassigned) [Compound 13, 5-(((R)-1-((enantiomer 1 or 2)-1-(7-ethyl-6-oxo-5,6-dihydro-1,5-naphthyridin-3-yl)ethyl)pyrrolidin-3-yl)oxy)-N-methylpicolinamide] | (ER = 7.91) | 3.85 10*−6 cm/s | 30.43 10*−6 cm/s | 29.5 | – | – | – | – | – | –
2 | CCc1cc2cnc([C@@H](C)N3CC(Oc4ccc(C(=O)NC)nc4)C3)cc2[nH]c1=O (single isomer, unassigned) [Compound 48, (enantiomer 1 or 2)-5-((1-(1-(3-ethyl-2-oxo-1,2-dihydro-1,6-naphthyridin-7-yl)ethyl)azetidin-3-yl)oxy)-N-methylpicolinamide] | (ER = 2.51) | 8.96 10*−6 cm/s | 22.47 10*−6 cm/s | 21.9 | > 10000 | 5.1 | – | – | – | –
3 | CCc1nc2ccc([C@H](C)N3CC(Oc4ccc(C(=O)NC)nc4)C3)cc2[nH]c1=O (single isomer, unassigned) [Compound 53, (enantiomer 1 or 2)-5-((1-(1-(2-ethyl-3-oxo-3,4-dihydroquinoxalin-6-yl)ethyl)azetidin-3-yl)oxy)-N-methylpicolinamide] | (ER = 2.51) | 13.2 10*−6 cm/s | 33.19 10*−6 cm/s | 12.1 | > 10000 | 24.2 | – | – | – | –
4 | CCc1nc2ccc([C@H](C)N3CC(Oc4ccc(C(=O)NC)nc4F)C3)cc2[nH]c1=O (single isomer, unassigned) [Compound 57, (enantiomer 1 or 2)-5-((1-(1-(2-ethyl-3-oxo-3,4-dihydroquinoxalin-6-yl)ethyl)azetidin-3-yl)oxy)-6-fluoro-N-methylpicolinamide] | (ER = 2.38) | 12.25 10*−6 cm/s | 29.21 10*−6 cm/s | 9.1 | – | 7.3 | – | – | – | –
5 | CCc1nc2ccc(C(C)N3CC(Oc4ccc(C(=O)NC)nc4)C3)cc2[nH]c1=O (stereo not drawn) [Compound 20, 5-((1-(1-(2-ethyl-3-oxo-3,4-dihydroquinoxalin-6-yl)ethyl)azetidin-3-yl)oxy)-N-methylpicolinamide] | – | – | – | – | > 10000 | 14.8 | 2.16 | 11.8 | 25.4 | 38.2
6 | CCc1nc2ccc(CN3CC[C@@H](Oc4ccc(C(=O)NC)nc4)C3)cc2[nH]c1=O [Compound 28, (R)-5-((1-((2-ethyl-3-oxo-3,4-dihydroquinoxalin-6-yl)methyl)pyrrolidin-3-yl)oxy)-N-methylpicolinamide] | – | – | – | – | > 10000 | 9.3 | 5.03 | 6.32 | 31.8 | 57.6
7 | CCc1cc2cnc(C(C)N3CC(Oc4ccc(C(=O)NC)nc4)C3)cc2[nH]c1=O (stereo not drawn) [Compound 51, 5-((1-(1-(3-ethyl-2-oxo-1,2-dihydro-1,6-naphthyridin-7-yl)ethyl)azetidin-3-yl)oxy)-N-methylpicolinamide] | – | – | – | – | 9610 | 3.8 | 6.4 | 5.4 | 34.6 | 15.9
8 | CCc1cc2cnc(CN3CC[C@@H](Oc4ccc(C(=O)NC)nc4)C3)cc2[nH]c1=O [Compound 63, (R)-5-((1-((3-ethyl-2-oxo-1,2-dihydro-1,6-naphthyridin-7-yl)methyl)pyrrolidin-3-yl)oxy)-N-methylpicolinamide] | – | – | – | – | > 10000 | 7.03 | 7.96 | 5.35 | 42.5 | 5.4
